# Reference: US20250302080A1, “SWEETNESS AND/OR FLAVOR ENHANCER” (AJINOMOTO CO., INC., priority 2022, published 2025)
# How the values were obtained:
# [1] = Sensory evaluation of sweetness intensity in RebA solution, four reference samples (Experimental Examples 17-19); settings: for concentration at which a sweetness-enhancing effect was confirmed: added alone, 3.0 points or more
# Experimental: A negative control RebA solution (0.073 wt % RebA solution) was prepared by dissolving RebA in filtered water.
# (§1) A sensory evaluation of sweetness intensity was performed for each sample by a panel of four experts according to the following evaluation criteria.
# Sweetness intensity was evaluated by 0.0 to 10.0 points based on the following reference samples (negative control (hereinafter referred to as NC) (0.0 point); reference 1 (hereinafter referred to as R1) (3.2 points), reference 2 (hereinafter referred to as R2) (5.0 points); reference 3 (hereinafter referred to as R3) (10.0 points)). The average score (rounded to two decimal places) of each expert panelist was calculated. An average score of 3.0 points or more was considered to be functional. • NC (0.0 point): 0.073 wt % RebA solution (solvent: filtered water) • R1 (3.2 points): 0.073 wt % RebA solution (solvent: filtered water)+decanoic acid (10 ppb) • R2 (5.0 points): 0.077 wt % RebA solution (solvent: filtered water) • R3 (10.0 points): 0.080 wt % RebA solution (solvent: filtered water)
# A sensory evaluation of sweetness intensity was performed for each sample by a panel of four experts according to the same evaluation criteria as in Experimental Example 17.
# [2] = Sensory evaluation of sweetness intensity in RebM solution (Experimental Examples 20-21)
# Experimental: A negative control RebM solution (0.063 wt % RebM solution) was prepared by dissolving RebM in filtered water.
# as §1
# Sweetness intensity was evaluated by 0.0 to 10.0 points based on the following reference samples (negative control (hereinafter referred to as NC) (0.0 point); reference 1 (hereinafter referred to as R1) (3.0 points), reference 2 (hereinafter referred to as R2) (5.0 points); reference 3 (hereinafter referred to as R3) (10.0 points)). The average score (rounded to two decimal places) of each expert panelist was calculated. An average score of 3.0 points or more was considered to be functional. • NC (0.0 point): 0.063 wt % RebM solution (solvent: filtered water) • R1 (3.0 points): 0.063 wt % RebM solution (solvent: filtered water)+dodecanoic acid (1 ppb) • R2 (5.0 points): 0.066 wt % RebM solution (solvent: filtered water) • R3 (10.0 points): 0.069 wt % RebM solution (solvent: filtered water)
# A sensory evaluation of sweetness intensity was performed for each sample by a panel of four experts according to the same evaluation criteria as in Experimental Example 20.
# [3] = Sensory evaluation of sweetness intensity in sucralose solution (Experimental Examples 23-24); settings: for sweetness intensity: average score; for concentration at which a sweetness-enhancing effect was confirmed: sucralose solution, added alone, 3.0 points or more
# Experimental: A negative control sucralose solution (0.0140 wt % sucralose solution) was prepared by dissolving sucralose in filtered water.
# as §1
# Sweetness intensity was evaluated by 0.0 to 10.0 point based on the following reference samples (negative control (hereinafter referred to as NC) (0.0 point); reference 1 (hereinafter referred to as R1) (3.0 points), reference 2 (hereinafter referred to as R2) (5.0 points); reference 3 (hereinafter referred to as R3) (10.0 points)). The average score (rounded to two decimal places) of each expert panelist was calculated. An average score of 3.0 points or more was considered to be functional. • NC (0.0 point): 0.0140 wt % sucralose solution (solvent: filtered water) • R1 (3.0 points): 0.0164 wt % sucralose solution (solvent: filtered water) • R2 (5.0 points): 0.0180 wt % sucralose solution (solvent: filtered water) • R3 (10.0 points): 0.0220 wt % sucralose solution (solvent: filtered water)
# A sensory evaluation of sweetness intensity was performed for each sample by a panel of four experts according to the same evaluation criteria as in Experimental Example 23.
# [4] = Sensory evaluation of sweetness intensity in aspartame solution, four reference samples (Experimental Example 22)
# Experimental: A negative control aspartame solution (0.063 wt % aspartame solution) was prepared by dissolving aspartame in filtered water.
# as §1
# Sweetness intensity was evaluated by 0.0 to 10.0 point based on the following reference samples (negative control (hereinafter referred to as NC) (0.0 point); reference 1 (hereinafter referred to as R1) (3.2 points), reference 2 (hereinafter referred to as R2) (5.0 points); reference 3 (hereinafter referred to as R3) (10.0 points)). The average score (rounded to two decimal places) of each expert panelist was calculated. An average score of 3.0 points or more was considered to be functional. • NC (0.0 point): 0.063 wt % aspartame solution (solvent: filtered water) • R1 (3.2 points): 0.063 wt % aspartame solution (solvent: filtered water)+decanoic acid (10 ppb) • R2 (5.0 points): 0.066 wt % aspartame solution (solvent: filtered water) • R3 (10.0 points): 0.069 wt % aspartame solution (solvent: filtered water)
# [5] = added alone at 0.001 ppb to 0.0140 wt % sucralose solution
# [6] = added alone at 0.01 ppb to 0.0140 wt % sucralose solution
# [7] = added alone at 0.1 ppb to 0.0140 wt % sucralose solution
# [8] = added alone at 1 ppb to 0.0140 wt % sucralose solution
# [9] = added alone at 10 ppb to 0.0140 wt % sucralose solution
# [10] = added alone at 100 ppb to 0.0140 wt % sucralose solution
# [11] = added alone at 1000 ppb to 0.0140 wt % sucralose solution
# [12] = added alone at 10000 ppb to 0.0140 wt % sucralose solution
SMILES,sweetness intensity ([1]; acid added alone at 0.001 ppb),sweetness intensity ([1]; acid added alone at 0.01 ppb),sweetness intensity ([1]; acid added alone at 0.1 ppb),sweetness intensity ([1]; acid added alone at 1 ppb),sweetness intensity ([1]; acid added alone at 10 ppb),sweetness intensity ([1]; acid added alone at 100 ppb),sweetness intensity ([1]; acid added alone at 1000 ppb),sweetness intensity ([1]; acid added alone at 10000 ppb),concentration at which a sweetness-enhancing effect was confirmed [1],sweetness intensity ([2]; acid added alone at 0.001 ppb),sweetness intensity ([2]; acid added alone at 0.01 ppb),sweetness intensity ([2]; acid added alone at 0.1 ppb),sweetness intensity ([2]; acid added alone at 1 ppb),sweetness intensity ([2]; acid added alone at 10 ppb),sweetness intensity ([2]; acid added alone at 100 ppb),sweetness intensity ([2]; acid added alone at 1000 ppb),sweetness intensity ([2]; acid added alone at 10000 ppb),"sweetness intensity [3, 5]","sweetness intensity [3, 6]","sweetness intensity [3, 7]",other results
CCCCCCCCC(=O)O [nonanoic acid],0.7 points,1.0 points,1.8 points,2.8 points,3.3 points,4.0 points,4.8 points,4.4 points,≥ 10 ppb,0.9 points,1.4 points,2.1 points,2.8 points,3.3 points,4.1 points,4.8 points,4.8 points,1.3 points,1.8 points,2.4 points,"sweetness intensity [3, 8]: 3.0 points; sweetness intensity [3, 9]: 3.5 points; sweetness intensity [3, 10]: 3.9 points; sweetness intensity [3, 11]: 4.3 points; sweetness intensity [3, 12]: 4.2 points; concentration at which a sweetness-enhancing effect was confirmed [3]: ≥ 1 ppb; sweetness intensity ([4]; acid added alone at 0.001 ppb): 0.8 points; sweetness intensity ([4]; acid added alone at 0.01 ppb): 2.0 points; sweetness intensity ([4]; acid added alone at 0.1 ppb): 2.7 points; sweetness intensity ([4]; acid added alone at 1 ppb): 3.4 points; sweetness intensity ([4]; acid added alone at 10 ppb): 4.5 points; sweetness intensity ([4]; acid added alone at 100 ppb): 4.9 points; sweetness intensity ([4]; acid added alone at 1000 ppb): 5.4 points; sweetness intensity ([4]; acid added alone at 10000 ppb): 5.9 points"
CCCCCCCCCCCC(=O)O [dodecanoic acid],0.6 points,1.3 points,2.3 points,4.2 points,5.0 points,5.7 points,6.0 points,6.0 points,≥ 1 ppb,0.8 points,1.7 points,2.5 points,3.0 points,5.0 points,4.6 points,4.7 points,4.8 points,1.0 points,1.6 points,2.0 points,"sweetness intensity [3, 8]: 2.5 points; sweetness intensity [3, 9]: 3.0 points; sweetness intensity [3, 10]: 3.5 points; sweetness intensity [3, 11]: 3.9 points; sweetness intensity [3, 12]: 3.7 points; concentration at which a sweetness-enhancing effect was confirmed [3]: ≥ 10 ppb; sweetness intensity ([4]; acid added alone at 0.001 ppb): 1.7 points; sweetness intensity ([4]; acid added alone at 0.01 ppb): 2.2 points; sweetness intensity ([4]; acid added alone at 0.1 ppb): 2.7 points; sweetness intensity ([4]; acid added alone at 1 ppb): 3.3 points; sweetness intensity ([4]; acid added alone at 10 ppb): 4.2 points; sweetness intensity ([4]; acid added alone at 100 ppb): 4.9 points; sweetness intensity ([4]; acid added alone at 1000 ppb): 5.5 points; sweetness intensity ([4]; acid added alone at 10000 ppb): 6.1 points"
CCCCCCCCCCC(=O)O [undecanoic acid],0.3 points,1.9 points,3.5 points,4.5 points,5.4 points,6.0 points,6.2 points,5.7 points,≥ 0.1 ppb,1.3 points,2.0 points,2.4 points,2.9 points,3.3 points,3.9 points,4.4 points,4.1 points,0.9 points,1.3 points,1.7 points,"sweetness intensity [3, 8]: 2.1 points; sweetness intensity [3, 9]: 2.8 points; sweetness intensity [3, 10]: 3.1 points; sweetness intensity [3, 11]: 3.4 points; sweetness intensity [3, 12]: 3.2 points; sweetness intensity ([4]; acid added alone at 0.001 ppb): 1.3 points; sweetness intensity ([4]; acid added alone at 0.01 ppb): 2.1 points; sweetness intensity ([4]; acid added alone at 0.1 ppb): 2.8 points; sweetness intensity ([4]; acid added alone at 1 ppb): 3.2 points; sweetness intensity ([4]; acid added alone at 10 ppb): 3.8 points; sweetness intensity ([4]; acid added alone at 100 ppb): 4.1 points; sweetness intensity ([4]; acid added alone at 1000 ppb): 4.7 points; sweetness intensity ([4]; acid added alone at 10000 ppb): 5.5 points"
CCCCCCCC(=O)O [octanoic acid],0.3 points,0.4 points,0.9 points,1.3 points,2.0 points,2.6 points,3.7 points,4.0 points,≥ 1000 ppb,1.1 points,1.8 points,2.7 points,3.3 points,4.3 points,4.3 points,4.4 points,4.3 points,0.5 points,1.3 points,1.8 points,"sweetness intensity [3, 8]: 2.3 points; sweetness intensity [3, 9]: 2.9 points; sweetness intensity [3, 10]: 3.3 points; sweetness intensity [3, 11]: 4.0 points; sweetness intensity [3, 12]: 4.5 points; sweetness intensity ([4]; acid added alone at 0.001 ppb): 0.6 points; sweetness intensity ([4]; acid added alone at 0.01 ppb): 1.4 points; sweetness intensity ([4]; acid added alone at 0.1 ppb): 2.2 points; sweetness intensity ([4]; acid added alone at 1 ppb): 2.9 points; sweetness intensity ([4]; acid added alone at 10 ppb): 3.4 points; sweetness intensity ([4]; acid added alone at 100 ppb): 3.9 points; sweetness intensity ([4]; acid added alone at 1000 ppb): 4.3 points; sweetness intensity ([4]; acid added alone at 10000 ppb): 4.6 points; concentration at which a sweetness-enhancing effect was confirmed ([4]; added alone, 3.0 points or more): ≥ 10 ppb"
